Article PMC8153121, “N-Alkylation of Anthracycline Antibiotics by Natural Sesquiterpene Lactones as a Way to Obtain Antitumor Agents with Reduced Side Effects” (Biomedicines, 2021)
Where two headings read alike, the source gives them in different places.

How the values were obtained:
[1] = molecular target: T1, cytochrome-c-oxidase complex of the mitochondrial respiratory chain (IV) (Rattus norvegicus, UniProt P00406+P05503+P05505); assay: Respiratory chain complex IV, OCR of isolated rat heart mitochondria (Seahorse); assay type: biochemical; conditions: isolated rat heart mitochondria 10 μg/well, compounds at 30 μM
T1 construct: Rat heart mitochondria were isolated by differential centrifugation; from tissue; host or cells: rat heart mitochondria
Procedure: (§1) Rat heart mitochondria were isolated by differential centrifugation using ice-cold buffer containing KCl (120 mM) and HEPES (20 mM), pH = 7.4, and a trypsin inhibitor. The mitochondrial yield ranged from 5 to 10 mg/mL of protein in the heart sediment. Mitochondria were stored in plastic containers at 4 °C.
(§2) The effect of the compounds on the functioning of the electron transport chain complexes was carried out using an Agilent Seahorse XF96e Analyzer (Seahorse Bioscience, Billerica, MA, USA) according to their ability to change the rate of oxygen uptake by isolated rat heart mitochondria (10 μg/well). The following modulators were used: activators of complex I of the electron transport chain, NADH dehydrogenase,—glutamate/malate; rotenone (2 μM) (Sigma Aldrich, Saint Louis, USA)—a tissue respiration blocker that stops the transfer of electrons from the reduced form of NADH to cytochrome b, was used as complex I inhibitor; potassium succinate ([…]) (Dia-M, Moscow, Russia), which is a substrate of complex II of the electron transport chain, made it possible to assess mitochondrial respiration mediated by succinate dehydrogenase; complex III (ubiquinol-cytochrome c-oxidoreductase) inhibitor—a blocker of cellular respiration antimycin A (Sigma Aldrich, Saint Louis, USA), as well as ascorbate/TMPD (0.5 μM) (Sigma Aldrich, Saint Louis, USA), allowed us to evaluate the cytochrome-c-oxidase mediated respiration of organelles.

[2] = tested on: RD (embryonic rhabdomyosarcoma); assay: MTT cell viability test, RD; assay type: cell-based, Human; conditions: 72 h, read-out: IC50, RD
Procedure: (§3) Human cell cultures of tumor origin (A549 (lung carcinoma), HCT116 (colon adenocarcinoma), MCF7 (breast cancer), RD (embryonic rhabdomyosarcoma)), and the line of non-transformed cells HEK293 (embryonic kidney) provided by the Laboratory of Tumor Cell Genetics at the N.N. Blokhin Russian Cancer Research Institute, as well as by the Institute of Cytology of the Russian Academy of Sciences, were grown in DMEM (Gibco, Scotland, UK) and MEM (Gibco, Scotland, UK) containing fetal calf serum (10% by volume) (ThermoFisher Scientific, Paisley, UK), L-glutamine (2 mM) (Gibco, Scotland, UK), and penicillin-streptomycin (1% by volume) (PanEco, Moscow, Russia).
(§4) Cellular viability was determined by the MTT test. […] After 24 h of incubation, various concentrations of the test compounds dissolved in DMSO (≤1%) were added to the cell cultures, the solvent was added to the control wells in an equal volume, and then the cells were cultured under the same conditions for 72 h. After the incubation time, MTT (3-(4,5-dimethylthiazol-2-yl)-2,5-diphenyltetrazolium bromide, 5 mg/mL) was added to each well, and the plates were further incubated for 2 h (until a characteristic color appeared). Then, the formazan granules were dissolved in DMSO.
(§5) Using a plate analyzer (Cytation3, BioTech Instruments Inc., USA), the optical density was determined at λ = 530 nm.

MCF7 (breast cancer) = assay: MTT cell viability test, MCF7; assay type: cell-based, Human; conditions: read-out: IC50, MCF7
Procedure: as §3, §4, §5

rat heart mitochondria = assay: Mitochondrial swelling; assay type: biochemical; conditions: rat heart mitochondria 0.5 mg/mL, compounds at 100 μM, Ca2+ 25 μM
Procedure: as §1
Mitochondrial swelling was recorded by the light transmission of the rat heart mitochondrial suspension at λ = 540 nm using a Victor 3 plate analyzer (Perkin Elmer, Germany). The swelling rate was estimated as △A540/min and was calculated as the tangent of the angle of the steepest dependence curve part △A540 versus time.

[3] = tested on: HEK293 (embryonic kidney); assay: MTT cell viability test, non-transformed HEK293; assay type: cell-based, Human; conditions: read-out: IC50, HEK293
Procedure: as §3, §4, §5

[4] = molecular target: T2, complex II of the electron transport chain (Rattus norvegicus, UniProt P21913+Q641Z9+Q6PCT8+Q920L2); assay: Respiratory chain complex II, OCR of isolated rat heart mitochondria (Seahorse); assay type: biochemical; conditions: isolated rat heart mitochondria 10 μg/well, compounds at 30 μM
T2 construct: Rat heart mitochondria were isolated by differential centrifugation; from tissue; host or cells: rat heart mitochondria
Procedure: as §1, §2

A549 (lung carcinoma) = assay: MTT cell viability test, A549; assay type: cell-based, Human; conditions: read-out: IC50, A549
Procedure: as §3, §4, §5

[5] = tested on: HeLa cervical tumor cell line; assay: Glycolysis stress test (Seahorse, extracellular acidification rate); assay type: cell-based; conditions: HeLa cells, test substances 30 μM
Procedure: The ability of the studied compounds to modulate anaerobic glycolysis was investigated using the Agilent Seahorse XF96e Analyzer (Seahorse Bioscience, Billerica, MA, USA) according to the level of hydrogen proton production in the samples on the HeLa cervical tumor cell line by the glycolysis stress test.
HeLa cells in the exponential growth phase were plated into a 96-well cell culture microplate Seahorse (the density of the cell culture was 3 × 10^4/well). After 24 h, the rate of medium extracellular acidification by cells treated with the test compounds was recorded in real time during the sequential injection of modulators: glucose (10 mM) (Dia-M, Moscow, Russia), oligomycin (1 μM) (Sigma Aldrich, Saint Louis, USA), 2-fluoro-2-deoxy-D-glucose (25 mM) (Sigma Aldrich, Saint Louis, USA). This allowed us to estimate the glycolysis intensity in cells by three main parameters of glycolytic function: glycolysis by adding saturating amounts of glucose to the system, glycolytic capacity by the introduction of oligomycin, and glycolytic reserve by using the inhibitor of this glycolysis 2-fluoro-2-deoxy-D-glucose.

[6] = tested on: HCT116 (colon adenocarcinoma); assay: MTT cell viability test, HCT116; assay type: cell-based, Human; conditions: read-out: IC50, HCT116
Procedure: as §3, §4, §5

[7] = tested on: lipid peroxidation (LPO) of rat brain homogenate; assay: Lipid peroxidation of rat brain homogenate (TBA test); assay type: biochemical; conditions: rat brain homogenate 2 mg/mL, Fe2+ 500 μM, compound 100 μM
Procedure: To obtain a brain homogenate, decapitation of rats anesthetized in advance with CO2 was performed using a guillotine. The brain was homogenized in a buffer containing KCl (120 mM) and HEPES (20 mM) (Gibco, Scotland, UK), pH = 7.4, at 4 °C and centrifuged at 1500 rpm to obtain a supernatant.
To study the effect of compounds on the process of lipid peroxidation (LPO) of rat brain homogenate, we used a modified version of the TBA test, which is based on the reaction of 2-thiobarbituric acid with the final LPO product—malonic dialdehyde (MDA). According to the experimental scheme, the well of the plate contained the studied compounds (100 μM), rat brain homogenate (2 mg/mL), as well as 500 μM ferrous iron ions (FeSO4 × […]). After 30 min of incubation at 37 °C, TBA reagent was added to all samples, incubated for 90 min at 90 °C, and centrifuged at 6000 rpm for 15 min. The optical density of the selected supernatant was measured on a Victor 3 plate analyzer (Perkin Elmer, Germany […]) at λ = 540 nm.

T2 sequence (Q920L2 35-656): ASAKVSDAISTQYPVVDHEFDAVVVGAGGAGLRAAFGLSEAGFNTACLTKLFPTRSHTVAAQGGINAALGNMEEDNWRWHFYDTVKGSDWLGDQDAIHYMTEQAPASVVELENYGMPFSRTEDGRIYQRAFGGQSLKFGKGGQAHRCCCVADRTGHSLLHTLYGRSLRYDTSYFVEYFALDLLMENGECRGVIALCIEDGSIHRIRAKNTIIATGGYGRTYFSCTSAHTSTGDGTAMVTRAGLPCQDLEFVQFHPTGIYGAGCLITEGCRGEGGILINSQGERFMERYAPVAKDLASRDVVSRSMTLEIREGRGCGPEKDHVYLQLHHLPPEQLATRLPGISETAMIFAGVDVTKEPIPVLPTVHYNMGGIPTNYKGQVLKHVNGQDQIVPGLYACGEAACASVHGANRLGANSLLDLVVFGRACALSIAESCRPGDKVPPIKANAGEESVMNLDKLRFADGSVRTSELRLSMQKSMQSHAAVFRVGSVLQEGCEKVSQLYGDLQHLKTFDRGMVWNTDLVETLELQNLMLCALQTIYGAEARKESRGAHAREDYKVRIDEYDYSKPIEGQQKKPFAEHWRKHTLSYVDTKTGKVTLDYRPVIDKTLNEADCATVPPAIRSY
T2 sequence (P21913 31-282): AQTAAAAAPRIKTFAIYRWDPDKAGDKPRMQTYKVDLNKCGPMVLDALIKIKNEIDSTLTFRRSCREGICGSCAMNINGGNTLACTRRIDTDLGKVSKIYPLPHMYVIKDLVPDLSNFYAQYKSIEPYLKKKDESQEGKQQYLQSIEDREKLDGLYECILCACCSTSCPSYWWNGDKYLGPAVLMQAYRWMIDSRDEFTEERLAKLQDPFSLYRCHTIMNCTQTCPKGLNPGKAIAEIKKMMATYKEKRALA
T2 sequence (Q641Z9 30-169 limits assumed): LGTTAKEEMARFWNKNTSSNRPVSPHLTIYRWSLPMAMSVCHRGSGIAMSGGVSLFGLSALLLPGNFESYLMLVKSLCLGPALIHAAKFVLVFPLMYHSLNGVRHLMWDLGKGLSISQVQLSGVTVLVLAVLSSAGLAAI
T2 sequence (Q6PCT8 57-159): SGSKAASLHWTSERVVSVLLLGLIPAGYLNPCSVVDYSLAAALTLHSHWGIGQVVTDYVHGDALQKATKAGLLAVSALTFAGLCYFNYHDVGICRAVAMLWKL
T1 sequence (P00406 whole entry, other chains not shown): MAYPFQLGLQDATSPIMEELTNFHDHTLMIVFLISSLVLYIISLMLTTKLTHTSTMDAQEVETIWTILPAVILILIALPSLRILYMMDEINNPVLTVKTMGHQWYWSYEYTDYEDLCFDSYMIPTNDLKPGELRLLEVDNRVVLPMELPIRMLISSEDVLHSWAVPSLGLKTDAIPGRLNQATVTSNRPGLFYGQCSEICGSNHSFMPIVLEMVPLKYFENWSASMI
T1 sequence (P05505 whole entry, other chains not shown): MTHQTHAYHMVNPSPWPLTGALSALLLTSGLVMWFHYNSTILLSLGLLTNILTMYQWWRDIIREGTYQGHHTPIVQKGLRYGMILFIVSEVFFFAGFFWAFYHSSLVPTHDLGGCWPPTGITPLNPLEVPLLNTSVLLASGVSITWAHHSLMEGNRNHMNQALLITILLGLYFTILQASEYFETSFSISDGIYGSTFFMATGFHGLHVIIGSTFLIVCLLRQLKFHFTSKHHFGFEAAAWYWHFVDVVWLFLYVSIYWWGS

COc1cccc2c1C(=O)c1c(O)c3c(c(O)c1C2=O)CC(O)(C(=O)CO)CC3OC1CC(NCC2C(=O)OC3CC4(C)CCCC(C)C45OC5C32)C(O)C(C)O1 (stereo not shown) [Compound 5a]
Work of Respiratory Chain Complexes, % Decrease in OCR of Control, IV [1]: 23.99 ± 4.41%
IC50 ([2]; MTT): 2470 ± 70 nM
IC50 (MCF7 (breast cancer); MTT, 72 h): 3030 ± 70 nM
Mitochondrial Swelling, % of Ca2+-Induced Swelling (rat heart mitochondria): — (“—” indicates activity absence for compounds (≤10%) in a particular test)
IC50 ([3]; MTT, 72 h, non-transformed cells): 4500 ± 320 nM
Work of Respiratory Chain Complexes, % Decrease in OCR of Control, II [4]: — (“—” indicates activity absence for compounds (≤10%) in a particular test)
IC50 (A549 (lung carcinoma); MTT, 72 h): 4520 ± 570 nM
Effect on glycolytic function (extracellular acidification rate) [5]: most pronounced ability to reduce the acidification rate of the medium by cells
IC50 ([6]; MTT, 72 h): 2520 ± 20 nM

COc1cccc2c1C(=O)c1c(O)c3c(c(O)c1C2=O)C[C@@](O)(C(=O)CO)C[C@@H]3O[C@H]1C[C@H](NC[C@H]2C(=O)O[C@@H]3C[C@@]4(C)CCC=C(C)C4=C[C@@H]32)[C@H](O)[C@H](C)O1 [Compound 8a, (8S,10S)-10-(((2R,4S,5S,6S)-4-((((3S,3aR,8aR,9aR)-5,8a-Dimethyl-2-oxo-2,3,3a,7,8,8a,9,9a-octahydronaphtho[2,3-b]furan-3-yl)methyl)amino)-5-hydroxy-6-methyltetrahydro-2H-pyran-2-yl)oxy)-6,8,11-trihydroxy-8-(2-hydroxyacetyl)-1-methoxy-7,8,9,10-tetrahydrotetracene-5,12-dione]
melting point: 166 to 170 °C
Work of Respiratory Chain Complexes, % Decrease in OCR of Control, IV [1]: 25.95 ± 4.43%
IC50 ([2]; Homo sapiens): 1030 ± 20 nM
IC50 (MCF7 (breast cancer); Homo sapiens, MCF7, 72 h): 2340 ± 10 nM
Mitochondrial Swelling, % of Ca2+-Induced Swelling (rat heart mitochondria): 47.84 ± 4.99%
IC50 ([3]; Homo sapiens, HEK293, 72 h): 16400 ± 1070 nM
Work of Respiratory Chain Complexes, % Decrease in OCR of Control, II [4]: 27.58 ± 4.30%
IC50 (A549 (lung carcinoma); Homo sapiens, A549, 72 h): 1870 ± 70 nM
IC50 ([6]; Homo sapiens, HCT-116, 72 h): 430 ± 20 nM

COc1cccc2c1C(=O)c1c(O)c3c(c(O)c1C2=O)C[C@@](O)(C(=O)CO)C[C@@H]3O[C@H]1C[C@H](N)[C@H](O)[C@H](C)O1 [a, doxorubicin, reference compound]
Work of Respiratory Chain Complexes, % Decrease in OCR of Control, IV [1]: 37.73 ± 0.34%
IC50 ([2]; Homo sapiens, MTT): 290 ± 20 nM
IC50 (MCF7 (breast cancer); Homo sapiens, MCF7, 72 h, MTT, 72 h): 460 ± 30 nM
Mitochondrial Swelling, % of Ca2+-Induced Swelling (rat heart mitochondria): 116.20 ± 10.98%
% of MDA relative to control [7]: 236.68 ± 13.06%
IC50 ([3]; Homo sapiens, HEK293, 72 h, MTT, 72 h, non-transformed cells): 6780 ± 760 nM
Work of Respiratory Chain Complexes, % Decrease in OCR of Control, II [4]: 70.54 ± 0.64%
Work of Respiratory Chain Complexes, % Decrease in OCR of Control, II ([4]; listed as doxorubicin): more than 70%
IC50 (A549 (lung carcinoma); Homo sapiens, A549, 72 h, MTT, 72 h): 380 ± 20 nM
IC50 ([6]; Homo sapiens, HCT-116, 72 h, MTT, 72 h): 140 ± 10 nM
